Assays:
Assay in all cases: relative viability (nuclei count vs DMSO), 5 days (fraction); higher = more cells survive
Ruxolitinib + Navitoclax = compound: N#CC[C@H](C1CCCC1)n1cc(-c2ncnc3[nH]ccc23)cn1 [Ruxolitinib] + CC1(C)CCC(c2ccc(Cl)cc2)=C(CN2CCN(c3ccc(C(=O)NS(=O)(=O)c4ccc(N[C@H](CCN5CCOCC5)CSc5ccccc5)c(S(=O)(=O)C(F)(F)F)c4)cc3)CC2)C1 [Navitoclax] (partner 0.5 µM)
Procedure, shortened: (§1)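 A single step with final 0.05% Triton X-100, 1% formaldehyde and 1 ug/ml Hoechst fixed the cells and stained nuclei 5 days after treatment. Lung cancer cell lines in 1536-well plates had been treated by pin tool the day after seeding with one drug alone or a fixed anchor-drug dose plus five library-drug doses (not always all listed) in √10 steps, and nuclei were counted on 4× images. Relative viability is the ratio of nuclei in treated wells to nuclei in vehicle wells, taken as the median of duplicate plates.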

Ruxolitinib + Pemetrexed = compound: N#CC[C@H](C1CCCC1)n1cc(-c2ncnc3[nH]ccc23)cn1 [Ruxolitinib] + Nc1nc2[nH]cc(CCc3ccc(C(=O)N[C@@H](CCC(=O)O)C(=O)O)cc3)c2c(=O)[nH]1 [Pemetrexed] (partner 0.2 µM)
Procedure, shortened: as §1

Vismodegib + Tozasertib = compound: CS(=O)(=O)c1ccc(C(=O)Nc2ccc(Cl)c(-c3ccccn3)c2)c(Cl)c1 [Vismodegib] + Cc1cc(Nc2cc(N3CCN(C)CC3)nc(Sc3ccc(NC(=O)C4CC4)cc3)n2)n[nH]1 [Tozasertib] (partner 0.1 µM)
Procedure, shortened: as §1

Vismodegib + Bortezomib = compound: CS(=O)(=O)c1ccc(C(=O)Nc2ccc(Cl)c(-c3ccccn3)c2)c(Cl)c1 [Vismodegib] + CC(C)C[C@H](NC(=O)[C@H](Cc1ccccc1)NC(=O)c1cnccn1)B(O)O [Bortezomib] (partner 0.002 µM)
Procedure, shortened: as §1

| Cell Line | relative viability (Ruxolitinib + Navitoclax; first compound 0.08 µM) | relative viability (Ruxolitinib + Navitoclax; first compound 0.253 µM) | relative viability (Ruxolitinib + Navitoclax; first compound 0.8 µM) | relative viability (Ruxolitinib + Navitoclax; first compound 2.53 µM) | relative viability (Ruxolitinib + Navitoclax; first compound 8 µM) | relative viability (Ruxolitinib + Pemetrexed; first compound 0.08 µM) | relative viability (Ruxolitinib + Pemetrexed; first compound 0.253 µM) | relative viability (Ruxolitinib + Pemetrexed; first compound 0.8 µM) | relative viability (Ruxolitinib + Pemetrexed; first compound 2.53 µM) | relative viability (Ruxolitinib + Pemetrexed; first compound 8 µM) | relative viability (Vismodegib + Tozasertib; first compound 0.08 µM) | relative viability (Vismodegib + Tozasertib; first compound 0.253 µM) | relative viability (Vismodegib + Tozasertib; first compound 0.8 µM) | relative viability (Vismodegib + Tozasertib; first compound 2.53 µM) | relative viability (Vismodegib + Tozasertib; first compound 8 µM) | relative viability (Vismodegib + Bortezomib; first compound 0.08 µM) | relative viability (Vismodegib + Bortezomib; first compound 0.253 µM) | relative viability (Vismodegib + Bortezomib; first compound 0.8 µM) | relative viability (Vismodegib + Bortezomib; first compound 2.53 µM) | relative viability (Vismodegib + Bortezomib; first compound 8 µM) |
| --- | --- | --- | --- | --- | --- | --- | --- | --- | --- | --- | --- | --- | --- | --- | --- | --- | --- | --- | --- | --- |
| SK-MES-1 | 1.3 | 1.12 | 1.26 | 1.18 | 0.9 | 1.03 | 0.865 | 1.01 | 0.849 | 0.823 | 0.881 | 0.871 | 0.974 | 0.841 | 0.827 | – | – | – | – | – |
| HCC-827 | – | 0.863 | 0.908 | 0.857 | 0.845 | – | 0.249 | 0.231 | 0.258 | 0.274 | 0.42 | 0.419 | 0.432 | 0.392 | 0.423 | 1.05 | 1.06 | 0.982 | 1.14 | 0.985 |
| NCI-H596 | 0.903 | 1.05 | 1 | 1.01 | 1.14 | 0.507 | 0.481 | 0.607 | 0.462 | 0.717 | 1 | 0.814 | 0.932 | 0.838 | 0.769 | 0.923 | 1.09 | 0.976 | 1.18 | 1.05 |
| COR-L23 | 1.03 | 1.1 | 1.21 | 0.907 | 0.638 | 0.203 | 0.191 | 0.201 | 0.195 | 0.191 | 0.203 | 0.218 | 0.181 | 0.177 | 0.168 | 1 | 0.938 | 0.983 | 0.916 | 1.09 |
| 201T | 1.25 | 1.31 | 1.44 | 1.48 | 1.36 | 0.336 | 0.338 | 0.389 | 0.325 | 0.299 | 0.914 | 0.919 | 0.987 | 0.946 | 0.966 | 1.13 | 1.07 | 1.09 | 1.09 | 1.09 |
| NCI-H322M | 1.36 | 1.26 | 1.27 | 1.53 | 1.44 | 0.641 | 0.605 | 0.662 | 0.628 | 0.639 | 0.483 | 0.485 | 0.503 | 0.473 | 0.443 | 1.25 | 1.12 | 1.22 | 1.23 | 1.13 |
| LU99A | 0.986 | 0.737 | 0.803 | 0.751 | 0.666 | 0.171 | 0.179 | 0.178 | 0.186 | 0.195 | 0.301 | 0.248 | 0.239 | 0.268 | 0.269 | 1.12 | 1.13 | 1.25 | 1.09 | 1.15 |
